From US20150133373A1, “TRANSMUCOSAL DELIVERY OF ENGINEERED POLYPEPTIDES” (priority 2012, published 2015)
Read-outs that look alike come from different tables or passages of the source. No end group written: not given here. *: point of attachment. maleimido‑mono‑amide‑DOTA = O=C(O)CN1CCN(CC(=O)O)CCN(CC(=O)NCCN2C(=O)CC(*)C2=O)CCN(CC(=O)O)CC1

Legend:
[1] = Stability in a pancreatin enzyme mixture; type: in vitro ADME; conditions: isolated enzyme pancreatin
[2] = system: CD3+CD4+ T cells (PBMC from 52 human Caucasian individuals)
[3] = system: IgG molecules present in normal human sera; assay: Serum response analysis (ELISA, IgG binding to albumin binding polypeptides)
Protocol: Each serum sample was tested as a singlet.

Pancreatin = assay: Stability in a pancreatin enzyme mixture; type: in vitro ADME; conditions: pH 6.8
NIH/Swiss mice = assay: OGTT DOA (oral glucose tolerance test for duration of action) in NIH/Swiss mice; type: in vivo, mouse; conditions: for activity in OGTT DOA when dosed 24 hours before the glucose gavage (in words): dosed at t-24 hours; for % Glucose Lowering Compared to Vehicle: Table 6, 25 nmol/kg IP at t=−1 day, blood glucose at 30 min after glucose gavage ([…]), 4 hr fasted NIH/Swiss female mice
[4] = Melting temperature (Tm) by circular dichroism; type: physicochemical; conditions: CD at 221 nm, 20° to 90° C., 1×PBS, 0.4-0.5 mg/ml
Protocol: Purified albumin binding polypeptide variants were diluted in 1×PBS, to final concentrations between 0.4 and 0.5 mg/ml. Circular dichroism (CD) analysis was performed on a Jasco J-810 spectropolarimeter in a cell with an optical path-length of 1 mm. In the variable temperature measurements, the […] was measured at 221 nm from 20° to 90° C., with a temperature slope of 5° C./min.
The melting temperatures (Tm) of the different albumin binding polypeptide variants were calculated by determining the midpoint of the transition in the CD vs. temperature plot.

C57BL6 female mice = assay: Kidney vacuolization (cytoplasmic vacuolation of renal cortical tubular epithelial cells); type: in vivo, mouse; conditions: Example 32; sc injection on days 0-6, kidneys on day 7
Protocol: (§1) With some drugs, such as some pegylated proteins, undesirable vacuoles can form in cytoplasm of epithelial cells lining the proximal convoluted tubules, which is an undesirable toxicity measure. […] C57BL6 female mice (n=2 cages, 3 mice/cage) were weighed daily 3 hours prior to lights out Immediately after weighing, on days 0-6 mice were injected subcutaneously with test compound. Mice were sacrificed on day 7 and kidneys submitted for histopathology. […] A positive control compound known to cause vacuole formation was scored as 3. The ABD polypeptide itself scored 0.
as §1, with “3.” for “3. The ABD polypeptide itself scored 0.”

GLP-1 receptor = molecular target: T1, GLP-1 receptor (Rattus norvegicus, UniProt P32301); assay: GLP-1 receptor functional activity (cAMP induction, HTRF cell-based assay, 6-23 (clone 6) cells)
T1 construct: cells that endogenously express GLP-1R; host or cells: rat thyroid carcinoma 6-23 (clone 6) cells
T1 sequence (P32301 22-463): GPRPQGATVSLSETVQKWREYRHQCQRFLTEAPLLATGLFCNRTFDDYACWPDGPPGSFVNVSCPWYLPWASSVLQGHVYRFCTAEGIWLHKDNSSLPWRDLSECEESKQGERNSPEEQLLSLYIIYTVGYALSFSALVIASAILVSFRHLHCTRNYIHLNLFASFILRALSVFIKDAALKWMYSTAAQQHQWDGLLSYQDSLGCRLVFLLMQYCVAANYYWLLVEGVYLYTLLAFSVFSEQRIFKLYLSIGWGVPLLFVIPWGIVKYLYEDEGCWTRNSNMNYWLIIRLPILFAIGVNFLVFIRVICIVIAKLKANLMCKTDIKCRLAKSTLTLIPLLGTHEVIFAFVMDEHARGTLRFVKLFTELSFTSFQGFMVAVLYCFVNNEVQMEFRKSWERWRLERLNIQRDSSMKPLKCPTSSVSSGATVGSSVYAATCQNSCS

CC[C@H](C)[C@H](NC(=O)[C@H](Cc1ccccc1)NC(=O)[C@H](CCC(=O)O)NC(=O)[C@H](CCCCN)NC(=O)[C@H](C)NC(=O)[C@H](C)NC(=O)[C@H](CCC(N)=O)NC(=O)CNC(=O)[C@H](CCC(=O)O)NC(=O)[C@H](CC(C)C)NC(=O)[C@H](Cc1ccc(O)cc1)NC(=O)[C@H](CO)NC(=O)[C@H](CO)NC(=O)[C@@H](NC(=O)[C@H](CC(=O)O)NC(=O)[C@H](CO)NC(=O)[C@@H](NC(=O)[C@H](Cc1ccccc1)NC(=O)[C@@H](NC(=O)CNC(=O)[C@H](CCC(=O)O)NC(=O)[C@H](C)NC(=O)[C@@H](N)Cc1c[nH]cn1)[C@@H](C)O)[C@@H](C)O)C(C)C)C(=O)N[C@@H](C)C(=O)N[C@@H](Cc1c[nH]c2ccccc12)C(=O)N[C@@H](CC(C)C)C(=O)N[C@H](C(=O)N[C@@H](CCCCN)C(=O)NCC(=O)N[C@@H](CCCNC(=N)N)C(N)=O)C(C)C [GLP-1 (7-36) (Human)]
remaining at 0.5 h, 30 micromolar ([1]; pancreatin enzyme mixture, 50 mM phosphate buffer pH 6.8, 37° C., 30 minutes, read-out: Percent Remaining at 30 minutes): 39%
remaining at 1 h, 30 micromolar ([1]; pancreatin enzyme mixture, 50 mM phosphate buffer pH 6.8, 37° C., 60 minutes, read-out: Percent Remaining at 60 minutes): 24%

CC[C@H](C)[C@H](NC(=O)[C@H](C)NC(=O)[C@H](CC(=O)O)NC(=O)[C@H](CCCCN)NC(=O)[C@H](CC(C)C)NC(=O)[C@H](C)NC(=O)[C@H](CCC(=O)O)NC(=O)[C@@H](NC(=O)CNC(=O)[C@H](CCC(=O)O)NC(=O)[C@@H](NC(=O)[C@@H](NC(=O)[C@H](CCCCN)NC(=O)[C@H](C)NC(=O)[C@H](CCCCN)NC(=O)[C@H](CC(=O)O)NC(=O)[C@@H](NC(=O)[C@H](CC(C)C)NC(=O)[C@H](CCCNC(=N)N)NC(=O)[C@H](CCCCN)NC(=O)[C@H](Cc1ccc(O)cc1)NC(=O)[C@H](Cc1ccccc1)NC(=O)[C@H](CC(=O)O)NC(=O)[C@H](CO)NC(=O)[C@@H](NC(=O)CNC(=O)[C@H](Cc1ccc(O)cc1)NC(=O)[C@H](CSC1CC(=O)N(CCNC(=O)CN2CCN(CC(=O)O)CCN(CC(=O)O)CCN(CC(=O)O)CC2)C1=O)NC(=O)[C@H](CC(=O)O)NC(=O)[C@H](CC(C)C)NC(=O)[C@H](CCC(=O)O)NC(=O)[C@H](C)NC(=O)[C@H](CC(N)=O)NC(=O)[C@H](C)NC(=O)[C@H](C)NC(=O)[C@H](CCC(=O)O)NC(=O)[C@H](CCCCN)NC(=O)[C@H](C)NC(=O)[C@H](CO)NC(=O)[C@H](C)NC(=O)[C@H](CC(C)C)NC(=O)CN)C(C)C)[C@@H](C)CC)[C@@H](C)O)C(C)C)C(C)C)C(=O)N[C@@H](CC(C)C)C(=O)N[C@@H](C)C(=O)N[C@@H](C)C(=O)N[C@@H](CC(C)C)C(=O)N1CCC[C@H]1C(=O)O (stereo partly drawn) [PEP07968]
immunogenicity classification (in words) [2]: non-immunogenic
number of responding individuals as compared to buffer only [2]: 1
reactivity with IgG of human sera (in words) [3]: least reactivity

CCCCCCCCCCCCCCCC(=O)N[C@@H](CCC(=O)NCCCC[C@H](NC(=O)[C@H](C)NC(=O)[C@H](C)NC(=O)[C@H](CCC(N)=O)NC(=O)CNC(=O)[C@H](CCC(=O)O)NC(=O)[C@H](CC(C)C)NC(=O)[C@H](Cc1ccc(O)cc1)NC(=O)[C@H](CO)NC(=O)[C@H](CO)NC(=O)[C@@H](NC(=O)[C@H](CC(=O)O)NC(=O)[C@H](CO)NC(=O)[C@@H](NC(=O)[C@H](Cc1ccccc1)NC(=O)[C@@H](NC(=O)CNC(=O)[C@H](CCC(=O)O)NC(=O)[C@H](C)NC(=O)[C@@H](N)Cc1cnc[nH]1)[C@@H](C)O)[C@@H](C)O)C(C)C)C(=O)N[C@@H](CCC(=O)O)C(=O)N[C@@H](Cc1ccccc1)C(=O)N[C@H](C(=O)N[C@@H](C)C(=O)N[C@@H](Cc1c[nH]c2ccccc12)C(=O)N[C@@H](CC(C)C)C(=O)N[C@H](C(=O)N[C@@H](CCCNC(=N)N)C(=O)NCC(=O)N[C@@H](CCCNC(=N)N)C(=O)NCC(=O)O)C(C)C)[C@@H](C)CC)C(=O)O [liraglutide, [N-epsilon-(gamma-Glu(N-alpha-hexadecanoyl))-Lys26,Arg34]-GLP-1-(7-37)-acid]
remaining at 0.5 h, 30 micromolar ([1]; pH 6.8): 100%
remaining at 1 h, 30 micromolar ([1]; pH 6.8): 100%
susceptibility to pancreatic enzymes (in words) (Pancreatin): relatively resistant to pancreatic enzymes

GSLAEAKEAANAELDSYGVSDFYKRLIDKAKTVEGVEALKDAILAALP [PEP07986]
activity in OGTT DOA when dosed 24 hours before the glucose gavage (in words) (NIH/Swiss mice): inactive

GSSLASAKEAANAELDSYGVSDFYKRLIDKAKTVEGVEALKDAILAALP [PEP07554]
Tm [4]: 58 °C
reactivity with IgG of human sera (in words) [3]: least reactivity

HGEGTFTSDLSKQLEEEAVRLFIEWLKNGGPSSGAPPKSTGGGGSASGSLAEAKEAANAELDSYGVSDFYKRLIDKAKTVEGVEALKDAILAALP [Cmpd 2-6]
Percent glucose lowering compared to vehicle (NIH/Swiss mice; Table 17, 25 nmol/Kg, OGTT at 24 hours post drug administration, 30 minutes post gavage): −22%

HGEGTFTSDLSKQLEEEAVRLFIEWLKQGGPSKEIISGGSLAEAKVLANRELDKYGVSDFYKRLINKAKTVEGVEALKLHILAALP [Cmpd 33]
% Glucose Lowering Compared to Vehicle (NIH/Swiss mice): −19%

HGEGTFTSDLSKQLEEEAVRLFIEWLKQGGPSKEIISTGGGGSASGSLAEAKEAANAELDSYGVSDFYKRLIDKAKTVEGVEALKDAILAALP [Cmpd 2-5]
Severity score for cytoplasmic vacuolation of renal cortical tubular epithelial cells (C57BL6 female mice): 0

HGEGTFTSDLSKQLEEEAVRLFIEWLKQGGPSKEIISTGGGGSGGGSGGGSGGGSASLAEAKVLANRELDKYGVSDFYKRLINKAKTVEGVEALKLHILAALP [Cmpd 8]
% Glucose Lowering Compared to Vehicle (NIH/Swiss mice): −21%

HGEGTFTSDLSKQMEEEAVRLFIEWLKNGGSLAEAKVLANRELDKYGVSDFYKRLINKAKTVEGVEALKLHILAALP [Cmpd 32]
activity in OGTT DOA when dosed 24 hours before the glucose gavage (in words) (NIH/Swiss mice): no glucose lowering

HGEGTFTSDLSKQMEEEAVRLFIEWLKNTGGGGSASLAEAKVLANRELDKYGVSDFYKRLINKAKTVEGVEALKLHILAALP [Cmpd 10]
% Glucose Lowering Compared to Vehicle (NIH/Swiss mice): −22%

PEP07975: DOTA-conjugated PEP07834, SEQ ID NO:460, via Cys14 with maleimido-mono-amide-DOTA; amidated at the C-terminus (ALASAKEAANAELDC(maleimido‑mono‑amide‑DOTA)YGVSDFYKRLIDKAKTVEGVEALKDAILAALP-NH2)
Tm [4]: 50 °C

TT: tetanus toxoid (TT, Statens Serum Institut), positive control [reference compound]
number of responding individuals as compared to buffer only ([2]; 52 donors): 49

B1: HGEGTFTSDLSKQLEEEAVRLFIEWLKNTGGGGSASGSLAEAKEAANAELDSYGVSDFYKRLIDKAKTVEGVEALKDAILAALP (protein)
chain: HGEGTFTSDLSKQLEEEAVRLFIEWLKNTGGGGSASGSLAEAKEAANAELDSYGVSDFYKRLIDKAKTVEGVEALKDAILAALP
activity in OGTT DOA when dosed 24 hours before the glucose gavage (in words) (NIH/Swiss mice): did not display 24 h duration
in vitro GLP-1 receptor functional activity (in words) (GLP-1 receptor): active in vitro against the GLP-1 receptor
